For two molecules, IC50 results are on record in US6977259B2, “Quinoline derivatives and their use as aurora 2 kinase inhibitors” (AstraZeneca AB, priority 2000, dated 2005).

For assay [1], the system named is MCF-7 cells. In words: In vitro cell proliferation assay 1 (CyQUANT cell density). It is filed as cell-based. The following applies: Homo sapiens, MCF7, 72 h; MCF-7, 3 days with compound, CyQUANT fluorescence; read-out: concentration giving 50% inhibition of cell proliferation. The source says:
(§1) (b) In Vitro Cell Proliferation Assays
(§2) These and other assays can be used to determine the ability of a test compound to inhibit the growth of adherent mammalian cell lines, for example the human tumour cell line MCF7.
MCF-7 (ATCC HTB-22) or other adherent cells were typically seeded at 1×10^3 cells per well (excluding the peripheral wells) in DMEM (Sigma Aldrich) without phenol red, plus 10% foetal calf serum, 1% L-glutamine and 1% penicillin/streptomycin in 96 well tissue culture treated clear plates (Costar). The following day (day 1), the media was removed from a no treatment control plate and the plate stored at −80° C. […] The fluorescence of the wells was then measured using a fluorescence microplate reader (gain 70, 2 reads per well, 1 cycle with excitation 485 nm and emission 530 nm using a CytoFluor plate reader (PerSeptive Biosystems Inc.)). […]

Assay [2] relates to MCF-7 cells. Put plainly: In vitro cell proliferation assay II (BrdU incorporation). The following applies: Homo sapiens, MCF7; MCF-7, 48 hours with compound, 2 hour BrdU labelling, ELISA; read-out: concentration giving 50% inhibition of BrdU incorporation. Format: cell-based.
Text: as §1, §2
This assay determines the ability of at test compound to inhibit the incorporation of the thymidine analogue, 5′-bromo-2′-deoxy-uridine (BrdU) into cellular DNA. MCF-7 or other adherent cells were typically seeded at 0.8×10^4 cells per well in DMEM (Sigma Aldrich) without phenol red, plus 10% foetal calf serum, 1% L-glutamine and 1% penicillin/streptomycin (50 μl/well) in 96 well tissue culture treated 96 well plates (Costar) and allowed to adhere overnight. […] The optical density of the wells was then determined at 690 nm wavelength using a Titertek Multiscan plate reader. […]
For orientation: Dividing cells build labelled thymidine or BrdU into new DNA.

In a further assay the target is T1, aurora2 kinase (Homo sapiens, UniProt O14965).
T1 construct: made in house; host or cells: Spodoptera frugiperda Sf21 insect cells (baculovirus, pFastBac HTc)
T1 sequence (O14965 1-403): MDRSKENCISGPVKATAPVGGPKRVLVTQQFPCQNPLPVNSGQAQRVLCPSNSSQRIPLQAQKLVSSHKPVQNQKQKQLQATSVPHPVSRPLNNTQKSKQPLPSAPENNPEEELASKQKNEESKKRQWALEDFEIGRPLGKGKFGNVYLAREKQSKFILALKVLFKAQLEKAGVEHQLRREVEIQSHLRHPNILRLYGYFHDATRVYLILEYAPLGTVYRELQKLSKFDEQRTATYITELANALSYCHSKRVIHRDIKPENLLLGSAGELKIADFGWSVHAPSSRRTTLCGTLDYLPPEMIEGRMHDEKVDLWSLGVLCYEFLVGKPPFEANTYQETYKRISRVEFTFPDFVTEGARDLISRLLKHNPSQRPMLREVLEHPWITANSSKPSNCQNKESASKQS
Put plainly: In vitro aurora2 kinase inhibition test. It is filed as biochemical.

For `O=C(Nc1ncc(Nc2ccnc3cc(OCCCN4CCOCC4)ccc23)cn1)c1ccccc1` [Compound 4], the IC50 in the assay with MCF-7 cells [1] is 0.185 µM; in the assay on MCF-7 cells [2] it was 0.19 µM; against aurora2 kinase it was 0.0785 µM.

On to `COc1cc2c(Nc3cnc(NC(=O)c4ccccc4)nc3)ccnc2cc1OCCCN1CCOCC1` [Compound 2], for which the values for the IC50 in the assay with MCF-7 cells [1], in the assay with MCF-7 cells [2] and against aurora2 kinase were 0.456 µM, 0.46 µM and 0.0592 µM, respectively.
